From patent publication US6878689B2, “Preventives or remedies for heart failure” (Kaken Pharmaceutical Co., Ltd., priority 2000, dated 2005)
Where a SMILES comes first, the peptide text is derived from it. [ ]: non-standard residue; d: D form. d2Nal = N[C@H](Cc1ccc2ccccc2c1)C(=O)O

System: anesthetized open-chest rabbits
Test: Effects of intravenously administered pralmorelin on cardiac function of anesthetized open-chest rabbit
Assay type: in vivo
Method: [Test Example 2] Effects of Intravenously Administered Pralmorelin on the Cardiac Function of Rabbit
The effects of pralmorelin on cardiac function were evaluated by measuring various parameters [blood pressure, heart rate, systolic left ventricular pressure (LVPsys), and maximal positive dP/dt (+dP/dtmax) obtained by differentiating the waveform of left ventricular pressure (LVP)]. The value of the maximal positive dP/dt for the left ventricular pressure (+dP/dtmax) is particularly important to determine if the cardiotonic action is sufficient to treat acute heart failure. • 1. Test Substance and Reagent • 1) Test Substance
Pralmorelin dihydrochloride (hereunder referred to as KP-102) (prepared by the method described in WO 9304081) was dissolved in distilled water for injection to prepare a 1.5 mg/mL solution. • 2) Control
Male NZW-strain rabbits (Kitayama Labes) weighing about 2 kg were used in the experiment. After arrival, the animals were allowed to eat a solid meal (Labo R Stock, Oriental Yeast Co., Ltd.) and drink water in a room at a temperature of 20±2° C. and at a humidity of 55±15% under 12-hr light/ dark cycles (from 7:00 to 19:00); the animals were kept under these conditions for at least 6 days before use. • 3. Test Method • 1) Measuring the Cardiac Function of Anesthetized Open-Chest Rabbit
Rabbits were anesthetized by administering 30 mg/kg of sodium pentobarbital into the auricular vein at a slow speed with attention to their breathing. The animals were then fixed in supine position and an endotracheal cannula was inserted. Under artificial respiration (tidal volume, 25 mL/breath; ventilation frequency, 45 breaths/min: SN-480-7 of Shinano Seisakusyo), the chest of each animal was opened by midline incision and the pericardium was incised to expose the heart. The left ventricular pressure (LVP) was measured with a pressure transducer (TP-300T, Nihon Kohden) and a pressure amplifier (AG-610G, Nihon Kohden) as a cannula with syringe was inserted from the cardiac apex into the left ventricle. The waveform of LVP was differentiated with a differentiator unit (ED-601, Nihon Kohden) to determine the maximal positive dP/dt(+dP/dtmax), which was used as an index for cardiac contractility. Blood pressure was measured with a pressure amplifier (AP-610G, Nihon Kohden) via a pressure transducer (TP-300T, Nihon Kohden) connected to a cannula inserted into the left femoral artery. Heart rate was measured with a cardiotachometer (AT-601G, Nihon Kohden) that was driven by counting the pulse waves of LVP. The parameters mentioned above were recorded on a recorder (TA-11, Gould). A cannula was inserted into the left femoral vein so as to assist in the administration of the test substance. The rectum temperature of each animal was controlled at 39° C. with a body temperature controller (TK-43, Asahi Denshi). The anesthetic was added as required but additional anesthetization should be avoided during the measurements. • 2) Groups
After each parameter stabilized, distilled water (0.2 mL/kg) was administered over one minute with an infusion pump (FP-W-100, Toyo Sangyo K.K.) and observations were made for 5 minutes after the administration to see whether the vehicle would have no effect. About 5 minutes after the administration of distilled water, the test substance was administered with an infusion pump in a volume of 0.2 mL/kg over one minute according to the grouping method specified above. Each hemodynamic parameter was measured both before administration and 1, 3, 5, 10, 15, 20 and 25 minutes after administration and the percent changes from the basal values were calculated. In some animals, measurement was conducted until 40 minutes after the administration of the test substance. • 4. Statistical Analysis
The results were each expressed by mean ± standard deviation. Any difference between groups was tested by repeated measures ANOVA (analysis of variance); The significance level was set at 5%. • 5. […]

[1] = 300 μg/kg i.v. over one minute, n=4, p<0.01 vs control

In the case of `C[C@H](NC(=O)[C@@H](Cc1ccc2ccccc2c1)NC(=O)[C@@H](C)N)C(=O)N[C@@H](Cc1c[nH]c2ccccc12)C(=O)N[C@H](Cc1ccccc1)C(=O)N[C@@H](CCCCN)C(N)=O` [KP-102, D-alanyl-3-(naphthalen-2-yl)-D-alanyl-L-alanyl-L-tryptophyl-D-phenylalanyl-L-lysinamide] (H-[dA][d2Nal]AW[dF]K-NH2), the “overall effect on heart rate” value (300 μg/kg i.v.) is reported as “little affected”, the “time until blood pressure baseline value practically restored” value (300 μg/kg i.v.) is reported as ~25 min and the “Maximum increase in +dP/dtmax, of the baseline value” [1] is reported as 22%. For the same compound, the “Maximum increase in LVPsys, of the baseline value” [1] was 13%, the “drop in heart rate” value (300 μg/kg i.v., 3 minutes after the administration) was 2% and the “increase in heart rate” value (300 μg/kg i.v., 15 minutes after the administration) was 1%. For the same compound, the “increase in heart rate” value (300 μg/kg i.v., 25 minutes after the administration) was 2%, the “period of peak of cardiotonic action” value (300 μg/kg i.v., LVPsys and +dP/dtmax) was 5 to 10 min and the “time until baseline values of LVPsys and +dP/dtmax restored” value (300 μg/kg i.v., one case with extended monitoring) was ≤ 40 min. The “effect on mean blood pressure” value (300 μg/kg i.v., p<0.05 vs control) was “significant rise of blood pressure”.
